This note sets out measurements from patent US9353091B2 (priority 2009, dated 2016).

SMILES strings stand for the structures.

As a reminder, the IC50 is the concentration at which inhibition is half-maximal. Read a low IC50 as greater potency in that assay. The term EC50 denotes the concentration needed to bring the measured effect to its halfway point. A higher EC50 goes with weaker potency.

Experiment [1] addresses T1, HCV polymerase 1B (Δ21 NS5B) (Hepatitis C virus genotype 1b, UniProt P26663).
T1 construct: 20 to 50 nM Δ21 NS5B
Put plainly: HCV Polymerase Inhibition Assay (1b). Format: biochemical. As for the experimental part:
(§1) Reaction volume was 50 μL. The reaction was terminated by the addition of 1 volume of 4 mM spermine in 10 mM Tris-Cl pH 8.0, 1 mM EDTA. After incubation for at least 15 minutes at room temperature, the precipitated RNA was captured by filtering through a GF/B filter (Millipore) in a 96 well format. The filter plate was washed three times with 200 μL, each of 2 mM spermine, 10 mM Tris-Cl pH 8.0, 1 mM EDTA, and 2 times with ethanol. After air-drying, 30 μL, of Microscint 20 scintillation cocktail (Packard) was added to each well, and the retained cpm were determined by scintillation counting. […] Retained cpm were plotted vs. inhibitor concentration and fit to equation 1 using non-linear regression (ref. 1) to obtain the IC50 values: Retained cpm=A[sqrt{(IC50+It−Et)^2+4*IC50*Et}−(IC50+It−Et)]
(§2) Ref. Morrison, J. F. and S. R. Stone. 1985. Approaches to the study and analysis of the inhibition of enzymes by slow- and tight-binding inhibitors. Comments Mol. Cell. Biophys. 2: 347-368.
(§3) The sequence of the template RNA used was: 5′-[…] […] […] […] […] […] […] […] […] […] […] […] […] […] […] […] […]-3′ (SEQ ID NO: 1)

The target in experiment [2] is T2, HCV polymerase 1A (Δ21 NS5B) (Hepatitis C virus genotype 1a, UniProt P27958).
T2 construct: 20 to 50 nM Δ21 NS5B
T2 sequence (P27958 2421-2990, stated change not applied): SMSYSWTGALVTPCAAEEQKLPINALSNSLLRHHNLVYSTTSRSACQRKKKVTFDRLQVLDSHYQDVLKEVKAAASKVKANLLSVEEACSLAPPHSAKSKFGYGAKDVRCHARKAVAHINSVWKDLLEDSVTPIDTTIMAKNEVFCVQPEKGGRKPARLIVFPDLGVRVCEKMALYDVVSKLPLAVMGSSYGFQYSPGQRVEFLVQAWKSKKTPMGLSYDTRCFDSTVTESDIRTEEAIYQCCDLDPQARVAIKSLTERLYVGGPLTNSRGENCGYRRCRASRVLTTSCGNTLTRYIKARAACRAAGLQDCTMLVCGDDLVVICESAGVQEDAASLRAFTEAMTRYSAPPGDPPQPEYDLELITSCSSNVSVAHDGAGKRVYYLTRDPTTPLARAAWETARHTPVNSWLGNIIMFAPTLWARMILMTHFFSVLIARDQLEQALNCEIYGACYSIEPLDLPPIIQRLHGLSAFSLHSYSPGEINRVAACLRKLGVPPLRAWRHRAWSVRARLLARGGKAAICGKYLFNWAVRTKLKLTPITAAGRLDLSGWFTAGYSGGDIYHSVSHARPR
Put plainly: HCV Polymerase Inhibition Assay (1a). In kind it is biochemical. As to the method: as §1, §2, §3

The subject of experiment [3] is genotype 1a-H77 subgenomic replicon cell line. In words: HCV Polymerase Replicon Assay (genotype 1a-H77, luciferase reporter). Format: cell-based. To be noted: Hepatitis C virus, 72 h, 1a-H77 replicon, three days. On the technique in general: Replicon systems follow genome replication, usually without infectious particles.
In experiment [4] the test system is genotype 1b-Con1 subgenomic replicon cell line. Put plainly: HCV Polymerase Replicon Assay (genotype 1b-Con1, luciferase reporter). Format: cell-based. To be noted: Hepatitis C virus, 72 h, 1b-Con1 replicon, three days.

T1 sequence (P26663 2420-2989, stated change not applied): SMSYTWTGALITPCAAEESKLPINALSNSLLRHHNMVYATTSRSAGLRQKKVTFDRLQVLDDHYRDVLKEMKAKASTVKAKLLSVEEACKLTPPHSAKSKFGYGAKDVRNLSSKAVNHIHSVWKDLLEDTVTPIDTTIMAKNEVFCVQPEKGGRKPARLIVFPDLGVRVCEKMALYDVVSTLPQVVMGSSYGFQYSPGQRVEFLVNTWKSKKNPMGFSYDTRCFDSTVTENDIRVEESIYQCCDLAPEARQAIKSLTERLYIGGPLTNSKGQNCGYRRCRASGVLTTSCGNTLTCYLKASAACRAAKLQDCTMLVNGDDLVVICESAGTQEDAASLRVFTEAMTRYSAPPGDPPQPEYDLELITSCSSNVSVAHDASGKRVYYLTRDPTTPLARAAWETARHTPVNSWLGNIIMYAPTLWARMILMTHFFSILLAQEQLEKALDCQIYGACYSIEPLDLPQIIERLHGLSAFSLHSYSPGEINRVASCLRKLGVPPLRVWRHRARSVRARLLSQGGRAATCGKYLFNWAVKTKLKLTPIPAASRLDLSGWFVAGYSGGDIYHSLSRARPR

With `COc1c(/C=C/c2ccc(NS(C)(=O)=O)cc2)cc(-c2c[nH]c(=O)[nH]c2=O)cc1C(F)(F)F` [compound 50, (E)-N-(4-(5-(2,4-dioxo-1,2,3,4-tetrahydropyrimidin-5-yl)-2-methoxy-3-(trifluoromethyl)styryl)phenyl)methanesulfonamide], the IC50 in experiment [1] and in experiment [2] was 0.01 to 0.1 µM throughout. Also, the EC50 in experiment [3] fell in the range of 0.1 to 1 µM; in experiment [4] it was 0.01 to 0.1 µM.
Take `COc1c(-c2ccc3cc(NS(C)(=O)=O)ccc3c2)cc(NC(=O)CCNC(=O)OC(C)(C)C)cc1C(C)(C)C` [compound 23, tert-butyl 3-(3-tert-butyl-4-methoxy-5-(6-(methylsulfonamido)naphthalen-2-yl)phenylamino)-3-oxopropylcarbamate]: the IC50 in experiment [1] is > 1 µM; in experiment [2], 0.1 to 1 µM. The EC50 in experiment [3] and in experiment [4] was > 1 µM in each case.
For the molecule `COc1c(-c2ccc3cc(NS(C)(=O)=O)ccc3c2)cc(N2CCNC2=O)cc1C(C)(C)C` [compound 27, N-(6-(3-tert-butyl-2-methoxy-5-(2-oxoimidazolidin-1-yl)phenyl)naphthalen-2-yl)methanesulfonamide], the IC50 in experiment [1] and in experiment [2] was 0.01 to 0.1 µM each time. In addition, the EC50 was 0.1 to 1 µM in experiment [3] and 0.01 to 0.1 µM in experiment [4].
Consider `C=Cc1c(-c2ccc3cc(NS(C)(=O)=O)ccc3c2)cc(-c2c[nH]c(=O)[nH]c2=O)cc1C(C)(C)C` [compound 35, N-(6-(3-tert-butyl-5-(2,4-dioxo-1,2,3,4-tetrahydropyrimidin-5-yl)-2-vinylphenyl)naphthalen-2-yl)methanesulfonamide], for which the IC50 in experiment [1] and in experiment [2] was < 0.01 µM throughout. The results for the EC50 in experiment [3] and in experiment [4] were 0.01 to 0.1 µM and ≤ 0.01 µM, respectively.
Regarding `COc1c(-c2ccc3cc(NS(C)(=O)=O)ccc3c2)cc(N2C(=O)CN=C2O)cc1C(C)(C)C` [compound 15, N-(6-(3-tert-butyl-5-(2-hydroxy-5-oxo-4,5-dihydro-1H-imidazol-1-yl)-2-methoxyphenyl)naphthalen-2-yl)methanesulfonamide], the IC50 was 0.01 to 0.1 µM in experiment [1] and < 0.01 µM in experiment [2]. For the same molecule, the EC50 lay within 0.1 to 1 µM in experiment [3] and 0.01 to 0.1 µM in experiment [4].
Consider `CC(C)(C)c1cc(-c2c[nH]c(=O)[nH]c2=O)cc(-c2ccc3cc(NS(C)(=O)=O)ccc3c2)c1N` [compound 33, N-(6-(2-amino-3-tert-butyl-5-(2,4-dioxo-1,2,3,4-tetrahydropyrimidin-5-yl)phenyl)naphthalen-2-yl)methanesulfonamide], for which the IC50 in experiment [1] was 0.01 to 0.1 µM; in experiment [2], < 0.01 µM. The results for the EC50 in experiment [3] and in experiment [4] were 0.1 to 1 µM and 0.01 to 0.1 µM, respectively.
As for `COc1c(-c2ccc3cc(NS(C)(=O)=O)ccc3c2)cc(N2CC(=O)NC2=O)cc1C(C)(C)C` [compound 16, N-(6-(3-tert-butyl-5-(2,4-dioxoimidazolidin-1-yl)-2-methoxyphenyl)naphthalen-2-yl)methanesulfonamide], the IC50 in experiment [1] and in experiment [2] was 0.01 to 0.1 µM each time. In addition, the EC50 in experiment [3] and in experiment [4] was 0.1 to 1 µM each time.
As for `COc1c(-c2ccc3cc(NS(C)(=O)=O)ccc3c2)cc(-c2c[nH]c(=O)[nH]c2=O)cc1-c1ccc(C)o1` [compound 42, N-(6-(5-(2,4-dioxo-1,2,3,4-tetrahydropyrimidin-5-yl)-2-methoxy-3-(5-methylfuran-2-yl)phenyl)naphthalen-2-yl)methanesulfonamide], the results for the IC50 in experiment [1] and in experiment [2] were 0.01 to 0.1 µM and < 0.01 µM, respectively. Moreover, the EC50 is 0.01 to 0.1 µM in experiment [3] and ≤ 0.01 µM in experiment [4].
Consider `COc1c(-c2ccc3cc(NS(C)(=O)=O)ccc3c2)cc(-c2ccc(=O)[nH]c2)cc1C(C)(C)C` [compound 10, N-(6-(3-tert-butyl-2-methoxy-5-(6-oxo-1,6-dihydropyridin-3-yl)phenyl)naphthalen-2-yl)methanesulfonamide], for which the IC50 in experiment [1] is > 1 µM; in experiment [2], 0.1 to 1 µM. Besides, the EC50 is 0.1 to 1 µM in experiment [3] and > 1 µM in experiment [4].
